The source of these data is US8420693B2, “Dipyrrole compounds, compositions, and methods for treating cancer or viral diseases” (Gemin X Pharmaceuticals Canada Inc., priority 2004, dated 2013).

Counter-ions that a name gives are not always drawn.

In assay [1] the test system is C33A human cervical cancer cells. The assay is described as follows: Growth of C33A cervical tumors in CB17 SCID/SCID mice. It is filed as in vivo. The following applies: for T/C value: day 42. The source says:
(§1) As used herein, the term “T/C value” refers to the value obtained when: (a) the change from baseline in average tumor volume of treated mice is divided by the change from baseline in the average tumor volume of negative control mice; and (b) the numerical value obtained in step (a) is multiplied by 100.
The resultant mice are a model for a human having cervical cancer.
The C33A human cervical cancer cells were maintained in RPMI (Hyclone, Utah, USA) supplemented with 10% inactivated fetal bovine serum (Bio-Whittaker, MD, USA) and 1% penicillin-streptomycin-L-Glutamine (Gibco, N.Y., USA), under 5% CO2 at 37° C., and passaged twice a week. The cells were grown at a confluency lower than 70% and than collected with Trypsin (Bio-Whittaker, MD, USA). The cells were then centrifuged and washed twice using phosphate buffered saline solution (PBS) and resuspended in PBS at 2×10^6 cells per 100 μl. Viability was examined by staining with trypan blue (Gibco, N.Y., USA) and only flasks with cell viability greater than 95% were used for in vivo studies.
C33A cells were injected subcutaneously into the flank of female CB17 SCID/SCID mice. Each mouse was inoculated with a suspension of 2×10^6 tumors cells per 100 μl on day zero. There were three treatment groups of ten mice each: (a) a negative control group, (b) a group treated with Compound 22 MS and (c) a group treated with Compound 37 MS.
Treatments started on day twenty eight after C33A cells transplantation. […] The negative control group was treated with vehicle alone. The injection volume for Compound treated groups and the negative control group was 100 μl.
Observation continued for 51 days after initial tumor implantation.

For assay [2], the system named is H1299 human non-small cell lung cancer-cells. The assay is described as follows: Cancer cell viability by cellular ATP levels (ViaLight), H1299. Particulars: NCI-H1299, 72 h, 3 days of incubation, ATP levels relative to untreated control. It is filed as cell-based. How it is done: (§2) Selected cell lines included C33A cervical carcinoma cells and H1299 human non-small cell lung cancer-cells (American Type Culture Collection, Manassas, Va. USA), which were cultured in the media recommended by the American Type Culture Collection. The cells lines were plated in 96-well microtiter plates (PerkinElmer Life Sciences Inc, Boston, Mass., USA) at a confluency that allowed them to reach confluence after 4 days of growth. One day after plating, the cells were treated with various concentrations of Compounds. Stock solutions of the Compounds were prepared in dimethyl sulfoxide (Sigma-Aldrich Inc., St. Louis, Mo., USA), diluted in the recommended media and then added to the cells. The total dimethyl sulfoxide on the cells was 0.1%. After 3 days of incubation the ATP levels in the cells were quantified using a luminescent ViaLight detection system (Bio-Whittaker, MD, USA). The results were plotted relative to untreated control cells, which were set at a value of 100. The IC50s were determined using a best-fit sigmoidal dose response curve with variable slope.

Assay [3] deals with C33A cervical carcinoma cells. The assay is described as follows: Cancer cell viability by cellular ATP levels (ViaLight), C33A. The class given is cell-based. Particulars: Homo sapiens, C-33-A, 72 h, 3 days of incubation, ATP levels relative to untreated control. The method, then: as §2
Assay [4] relates to human prostatic adenocarcinoma cancer PC3 cells. Briefly: Growth of PC3 prostate tumors in SCID mice. It is filed as in vivo.
Description: as §1
The resultant mice are a model for a human having prostatic cancer.
The human prostatic adenocarcinoma cancer PC3 cells were purchased from the American Type Culture Collection (ATCC). These cells were confirmed to be free of mycoplasma infection. Cells were maintained in the Roswell Park Memorial Institute (RPMI), supplemented with 10% inactivated fetal bovine serum and 1% penicillin-streptomycin-L-Glutamine, under 5% carbon dioxide (CO2) at 37° C. For prostatic-tumor induction, cells were grown lower than 70% confluence in complete medium and then collected with trypsin (Bio Whittaker, Rockland, Me., USA). Cells were then centrifuged and washed 2 times in phosphate buffer solution (PBS) and resuspended in PBS at 1.5×10^6 cells/0.1 mL. PC3 cells were then transplanted subcutaneously into the right flank of SCID mice (Charles River Laboratories, Wilmington, Mass., USA), as a suspension of tumor cells (1.5×10^6 cells in 100 μL PBS), under a laminar airflow hood. Eleven (11) days later, the size of each tumor was measured. […] Relative tumor size and volume was calculated as follows: length (cm)×[width (cm)]^2/2. There were four treatment groups of ten mice each: (a) a negative control group, (b) a positive control group and (c) a group treated with 36.25 μMoles/Kg of Compound 17 Mesylate Salt (d) a group treated with 72.5 μMoles/Kg of Compound 17 Mesylate Salt.
Treatments started on day eleven after PC3 cells transplantation. […] The negative control group was treated with vehicle alone.
Observation continued for 32 days after initial tumor implantation.

[5] abbreviates: 10 mg/kg iv once a day for five days.
[6] abbreviates: 2.6 mg/kg iv once a day for five days.

`COC1=CC(c2ccc(N(C)C)cc2)=NC1=Cc1[nH]c(C)cc1C` [Compound 22 MS, 4-(4-methoxy-5-((3,5-dimethyl-1H-pyrrol-2-yl)methylene)-5H-pyrrol-2-yl)-N,N-dimethylbenzenamine]: in assay [1] (setting [5]), the “reduction in tumor growth compared to mice treated with vehicle only” value (from here on “reduction in tumor growth”) was “statistically significant (p=0.0024) reduction in tumor growth” and the T/C value amounted to 34%.

On to `COC1=CC(c2cnn(Cc3ccccc3)c2)=NC1=Cc1[nH]c(C)cc1C` [Compound 37 MS, 1-benzyl-4-(4-methoxy-5-((3,5-dimethyl-1H-pyrrol-2-yl)methylene)-5H-pyrrol-2-yl)-1H-pyrazole], for which, in assay [1] (setting [6]), the “reduction in tumor growth” value is recorded as “statistically significant (p<0.0001) reduction in tumor growth” and the T/C value is given as 31%.

Take `COC1=CC(c2ccc(C=O)cc2)=NC1=Cc1[nH]c(C)cc1C` [Compound 9, 4-(4-methoxy-5-((3,5-dimethyl-1H-pyrrol-2-yl)methylene)-5H-pyrrol-2-yl)benzaldehyde]: the half-inhibitory concentration (IC50) (as a rule, the concentration at which inhibition is half-maximal) in assay [2] is 21.6 µM; in assay [3] it was 10.6 µM.

As for `COC1=CC(c2ccc(C(=O)N3CCCC3)cc2)=NC1=Cc1[nH]c(C)cc1C` [Compound 25, (4-(4-methoxy-5-((3,5-dimethyl-1H-pyrrol-2-yl)methylene)-5H-pyrrol-2-yl)phenyl)(pyrrolidin-1-yl)methanone], the concentration for half-maximal inhibition (IC50) in assay [2] turned out to be 16.5 µM; in assay [3], 7.75 µM.

For `COC1=CC(c2ccc(OC)c(F)c2)=NC1=Cc1[nH]c(C)cc1C` [Compound 26, 2-((5-(3-fluoro-4-methoxyphenyl)-3-methoxy-2H-pyrrol-2-ylidene)methyl)-3,5-dimethyl-1H-pyrrole], the half-inhibitory concentration (IC50) in assay [2] worked out at 3.65 µM; in assay [3], 0.849 µM.

Take `COC1=CC(c2ccc(OC)nc2)=NC1=Cc1[nH]c(C)cc1C` [Compound 42, 2-methoxy-5-(4-methoxy-5-((3,5-dimethyl-1H-pyrrol-2-yl)methylene)-5H-pyrrol-2-yl)pyridine]: the half-inhibitory concentration (IC50) amounted to 13.9 µM in assay [2] and 7.9 µM in assay [3].

For the molecule `Cc1cc(C)c(C=C2N=C(c3ccc4c(c3)OCO4)C=C2OCc2ccccc2)[nH]1` [Compound 44, 5-(benzo[d][1,3]dioxol-5-yl)-3-(benzyloxy)-2-((3,5-dimethyl-1H-pyrrol-2-yl)methylene)-2H-pyrrole], the half-inhibitory concentration (IC50) in assay [2] was determined as 8.3 µM; in assay [3], 2.16 µM.

For the molecule `COC1=CC(c2ccc(NS(C)(=O)=O)cc2)=N/C1=C\c1[nH]c(C)cc1C` [Compound 8, N-4-(4-methoxy-5-((3,5-dimethyl-1H-pyrrol-2-yl)methylene)-5H-pyrrol-2-yl)-phenyl-methylsulfonamide], the 50% inhibitory concentration (IC50) in assay [2] was 10 µM; in assay [3], 8 µM.

Consider `COC1=CC(c2cccnc2OC)=NC1=Cc1[nH]c(C)cc1C` [Compound 30, 2-methoxy-3-(4-methoxy-5-((3,5-dimethyl-1H-pyrrol-2-yl)methylene)-5H-pyrrol-2-yl)pyridine], for which the IC50 in assay [2] stood at 5.69 µM; in assay [3] it was 1.2 µM.

`COc1ccc(C2=NC(=Cc3[nH]c(C)cc3C)C(OCc3ccccc3)=C2)cc1OC` [Compound 43, 3-(benzyloxy)-5-(3,4-dimethoxyphenyl)-2-((3,5-dimethyl-1H-pyrrol-2-yl)methylene)-2H-pyrrole]: the IC50 in assay [2] came out at 0.709 µM; in assay [3], 0.131 µM.

Take `COC1=CC(c2cccc([N+](=O)[O-])c2)=NC1=Cc1[nH]c(C)cc1C` [Compound 12, 2-((3-methoxy-5-(3-nitrophenyl)-2H-pyrrol-2-ylidene)methyl)-3,5-dimethyl-1H-pyrrole]: the IC50 in assay [2] was 14 µM; in assay [3], 15 µM.

For `COC1=CC(c2ccco2)=NC1=Cc1[nH]c(C)cc1C` [Compound 13, 2-((5-(furan-2-yl)-3-methoxy-2H-pyrrol-2-ylidene)methyl)-3,5-dimethyl-1H-pyrrole], the IC50 in assay [2] came out at 40 µM; in assay [3], 2 µM.

Take `COC1=CC(c2cccc3ncccc23)=NC1=Cc1[nH]c(C)cc1C` [Compound 4, 5-(4-methoxy-5-((3,5-dimethyl-1H-pyrrol-2-yl)methylene)-5H-pyrrol-2-yl)quinoline]: the IC50 in assay [2] and in assay [3] was 16.6 µM throughout.

Regarding `COC1=CC(c2ccc(COC(C)(C)C)cc2)=NC1=Cc1[nH]c(C)cc1C` [Compound 41, 2-((5-(4-(tert-butoxymethyl)phenyl)-3-methoxy-2H-pyrrol-2-ylidene)methyl)-3,5-dimethyl-1H-pyrrole], the IC50 in assay [2] came out at 10.1 µM; in assay [3], 4.17 µM.

With `COC1=CC(c2ccc(OC)c(OC)c2)=NC1=Cc1[nH]c(C)cc1C` [Compound 17 Mesylate Salt, 2-((3-methoxy-5-(3,4-dimethoxyphenyl)-2H-pyrrol-2-ylidene)methyl)-3,5-dimethyl-1H-pyrrole], the “reduction in tumor growth” value was “did not result in a statistical significant reduction in tumor growth” in assay [4] (36.25 μMoles/Kg iv once a day for five days); “statistically significant (p<0.01) reduction in tumor growth” in assay [4] (72.5 μMoles/Kg iv once a day for five days, days 29 and 32). The T/C value turned out to be 53% in assay [4] (36.25 μMoles/Kg iv once a day for five days, day 29); 52% in assay [4] (36.25 μMoles/Kg iv once a day for five days, day 32); 18% in assay [4] (72.5 μMoles/Kg iv once a day for five days, day 29); 22% in assay [4] (72.5 μMoles/Kg iv once a day for five days, day 32).

Regarding `COC1=CC(c2cc(OC)c(OC)c(OC)c2)=NC1=Cc1[nH]c(C)cc1C` [Compound 28, 2-((3-methoxy-5-(3,4,5-trimethoxyphenyl)-2H-pyrrol-2-ylidene)methyl)-3,5-dimethyl-1H-pyrrole], the figures for the half-maximal inhibitory concentration (IC50) in assay [2] and in assay [3] were 2.38 µM and 0.627 µM, respectively.
